In patent US6737407B1, “Treatment of obesity” (Metabolic Pharmaceuticals, Ltd., priority 1997, dated 2004):
Where no end group is shown, it is not given here.

How the values were obtained:
[1] = test system: adipose tissues from male Zucker fatty (fa/fa) rats; test: In vitro glycerol release during lipolysis in isolated adipose tissue; format: cell-based, rat; conditions: adipose tissues isolated from obese animals
Protocol: Adipose tissues were removed from animals and sliced into segments of approximately 200 mg each. Then the tissues were pre-incubated in 25 ml vials containing 2 ml of Krebs-Ringerbicarbonate (KRB) buffer, 4% defatted BSA and 5.5 mM glucose under an atmosphere of carbogen (95%O2/ 5%CO2) at 37° C. for 1 hour. Tissues were then transferred to another vials with fresh medium and the incubation was initiated by adding hGH 177-191 peptide or analogues into the vials. The mixtures were then incubated at 37° C. for 90 minutes. After incubation, the tissues wee removed and aliquots (200 μl) of samples withdrawn from the medium were assayed for the contents of glycerol or free fatty acid (FFA) either by the enzyme assay (glycerol kinase) or calorimetric (copper-dye) spectrometry. The NADH or color produced was then monitored by the absorption at 340 nm and 610 nm, respectively.

[2] = test system: adipose tissues of the C57BL/6J (ob/ob) mice; test: Ex vivo lipogenesis in adipose tissues of treated ob/ob mice ([C14]-glucose incorporated into lipid); set-up: species or system mouse
Excerpt: FIGS. 5A & 5B depict the ex vivo effect on lipogenesis in adipose tissues of the C57BL/6J (ob/ob) male mice (5A) and female mice (5B) after 18-day treatment with hGH 177-191. […] The differences between the hGH 177-191 treated and saline control groups were statistically significant.
The procedure for the isolation and measurement of intact epididymal fat pads was established in previous studies of epididymal growth of GH-deficient (lit/lit) mice. In the present study, white adipose tissues, either whole epididymal or parametrical fat pads, were excised with the identical techniques as previously described^22 from the mice immediately after sacrifice. The tissues were washed in cold physiological saline, blotted and weighed. For ex vivo lipogenic assays, the portions of adipose tissues without blood vessels were used.
The rate of the incorporation of exogenous [C^14]-glucose into total lipid in adipose tissue was measured as the index of anti-lipogenic activity of hGH 177-191.
Adipose tissues were sliced into segments of approximately 200 mg each and then placed in Krebs-Ringer bicarbonate (KRB) buffer (pH 7.4) containing 2% defatted BSA, and glucose (0.1 mg/ml) and gassed with 95% O2-5% CO2 at 37° C. […] The [C^14] radioactivity was measured with a liquid scintillation counter. The rates of total lipid synthesis were expressed as μmol [C^14]-glucose incorporated into lipid/g tissue/hr.

LRIVQCRSVEGSCGF (cysteine pairing not given here) [Ref No. 9401]
release of glycerol (in words) [1]: enhanced | tissue lipogenic activity ([C14]-glucose incorporated into lipid) ([2]; female ob/ob mice after 18-day treatment): 2.99±0.21 pmol/mg tissue/min | tissue lipogenic activity ([C14]-glucose incorporated into lipid) ([2]; male ob/ob mice after 18-day treatment): 2.33±0.21 pmol/mg tissue/min
